The subject of test [1] is iPS cells (clone name 201B2). Description: Calreticulin expression-promoting activity in iPS cells, immunofluorescent antibody technique (Example 3). In kind it is cell-based. As to conditions: human iPS cells 201B2, peptide 10 μM, 5 days culture, confocal laser microscopy. The procedure: The calreticulin expression-promoting activity of the Samples 1 to 12 obtained in Example 1 was investigated. iPS cells (clone name 201B2, sometimes called simply 201B2 below) established from human fibroblasts were used as the test cells (source: Takahashi K et al., Cell, 131, 861-872 (2007)). These iPS cells were supplied by the Center for iPS Cell Research and Application, Kyoto University.
The test iPS cells (201B2) were seeded to a cell density of about 1×10^4 cells per well on matrigel-coated 8-well slides. Using mTeSR™ 1 medium (Stemcell Technologies) as the medium, the cells were cultured overnight in an incubator under conditions of 5% CO2, 37° C. Following this overnight culture, fresh mTeSR™ medium containing the peptides of Samples 1 to 12 in an amount yielding a peptide concentration of 10 μM was substituted, and the cells were further cultured for 5 days under the same conditions. Every day during this 5-day culture period, the medium was replaced with mTeSR™ 1 medium containing the peptides of Samples 1 to 12 in an amount yielding a peptide concentration of 10 μM. A peptide-free group was established as a control.
After completion of this culture, calreticulin expression in each test group was investigated by the immunofluorescent antibody technique (fluorescent immunostaining) using an anti-calreticulin antibody as in Example 2 except that a mixed solution of 1 vol. methanol and 1 vol. acetone (methanol:acetone=1:1 solution) was used to fix the cells, and the final concentration of the primary antibody was adjusted to 4×10^−3 mg/mL.
These figures are fluorescence micrographs examining calreticulin expression in each test group, and each combines (merges) a fluorescent image showing results for calreticulin expression in iPS cells as measured by the immunofluorescent antibody technique with an image showing nuclear staining by DAPI.

The subject of test [2] is HeLaS3 cells. Nature of the test: Calreticulin expression-promoting activity in tumor cells, immunofluorescent antibody technique (Example 2). In kind it is cell-based, human. As to conditions: peptide 10 μM, 5 days culture, confocal laser microscopy. An excerpt: The calreticulin expression-promoting activity of the peptides of the Samples 1 to 12 obtained in Example 1 above was investigated. The sample cells were HeLaS3 cells (ATCC CCL2.2), a cultured cell line derived from human cervical cancer. These HeLaS3 cells (ATCC CCL2.2) are known as a genomically unstable cultured cell line, which has been confirmed to have multiple chromosome duplications or in other words chromosomal abnormalities (karyotypic abnormalities). The details of the evaluation test are as follows.
HeLaS3 cells were seeded on 8-well slides to a cell density of about 1×10^3 cells per well. […]
A diluted primary antibody solution comprising an anti-calreticulin monoclonal [FMC75] antibody (from mouse, Abcam, Cat. No. ab22683, Lot No. GR56669-4) as the primary antibody prepared with 1% BSA/PBS (−) (PBS (−) containing 1% BSA) to a final concentration of 2.5×10^−3 mg/mL was added to the culture containers of the HeLaS3 cells, and left overnight at 4° C. […] This was then sealed with a cover glass together with an enclosed liquid containing DAPI (4′,6-diamidino-2-phenylindole) (Life Technologies), and fluorescence was observed by confocal laser microscopy. […]

In test [3] the test system is BXM14 cells, a cultured cell line of mouse ES cells. Nature of the test: Calreticulin expression-promoting activity in ES cells, immunofluorescent antibody technique (Example 4). In kind it is cell-based. As to conditions: mouse ES cells BXM14, peptide 50 μM, 3 days culture, confocal laser microscopy. As to the method: The calreticulin expression-promoting activity of the Samples 1 to 12 obtained in Example 1 was investigated. BXM14 cells, a cultured cell line of mouse ES cells (hereunder sometimes called “BXM14”), were used as the test cells. The details of the evaluation test were as follows.
The sample ES cells (BXM14) were seeded to a cell density of about 1×10^4 cells per well on 4-well slides. Using DMEM medium (Wako Pure Chemical, Cat No. 043-30085) containing 15% Knockout™ Serum Replacement (hereunder sometimes called “KSR”; Life Technologies, Cat No. 10828), 0.1 mM Non-essential Amino Acids Solution (hereunder sometimes called “NEAA”; Wako Pure Chemical, Cat No. 139-15651), 0.1 mM 2-mercaptoethanol (Sigma-Aldrich, Cat No. M7522) and 1000 units/mL of StemSure™ LIF, Mouse, recombinant, Solution (hereunder sometimes called “mLIF”; Wako Pure Chemical, Cat No. 199-116051), the cells were cultured overnight in an incubator under conditions of 5% CO2, 37° C. The DMEM medium containing KSR, NEAA, 2-mercaptoethanol and mLIF is also called simply “ES DMEM medium”. […]
These figures (images) are fluorescence micrographs examining calreticulin expression in each test group, and each combines (merges) a fluorescent image showing results for calreticulin expression in ES cells as measured by the immunofluorescent antibody technique with an image showing nuclear staining by DAPI.

Turning to “KKRTLRKNDRKKR CRAKAGDPC (KKRTLRKNDRKKRCRAKAGDPC) [Sample 9]”, the “fluorescence of the fluorescent label indicating calreticulin (expressed amount of calreticulin) compared with the peptide-free group and Sample 12” value in test [1] is “stronger fluorescence”. In the case of LAARAVRFSEKV [Sample 12], the “fluorescence of the fluorescent label indicating calreticulin (expressed amount of calreticulin) compared with the peptide-free group” value in test [2] is reported as “almost no fluorescence was detected”.

For the sequence “KKRTLRKNDRKKR GPRPPSLEC (KKRTLRKNDRKKRGPRPPSLEC) [Sample 11]”, the “fluorescence of the fluorescent label indicating calreticulin (expressed amount of calreticulin) compared with the peptide-free group and Sample 12” value in test [1] is given as “strong fluorescence”. Take CRAKAGDPC [Sample 1]: in test [3], the “fluorescence of the fluorescent label indicating calreticulin (amount of calreticulin expression) compared with the peptide-free group and Sample 12” value is “stronger fluorescence”. For “KKRTLRKNDRKKR NPGASF (KKRTLRKNDRKKRNPGASF) [Sample 10]”, the “fluorescence of the fluorescent label indicating calreticulin (expressed amount of calreticulin) compared with the peptide-free group and Sample 12” value in test [1] is “strong fluorescence”.
